In PMC3173295, “Biochemical characterization of trans-sialidase TS1 variants from Trypanosoma congolense” (BMC Biochemistry, 2011) one finds Km data, which are given here for 2 compounds.

Common to all, as to assay type: biochemical, Trypanosoma congolense
Assay [1] has as its system T1, T. congolense TS1 e-1.
T1 construct: residues 17-732 without signal peptide and GPI anchor region; C-terminal 3C site, SNAP and Strep tags; secreted from CHO Lec1 cells; 120 kDa with tags
Nature of the assay: HPAEC-PAD quantification of […]'Sia-Gal-MU, Michaelis-Menten fit. As to conditions: acceptor substrate; donor 50 nmol 3'SL in 50 μL (Figure 7 legend; text b29 says fetuin, 600 μM bound Sia); 37°C, 30 min; read-out: Acceptor substrates / Gal-MU / KM.

In assay [2] the test system is T2, T. congolense TS1b.
T2 construct: residues 17-732 without signal peptide and GPI anchor region; C-terminal 3C site, SNAP and Strep tags; secreted from CHO Lec1 cells; 120 kDa with tags
The assay is described as above. The conditions noted are these: acceptor substrate; donor 50 nmol 3'SL in 50 μL (Figure 7 legend; text b29 says fetuin, 600 μM bound Sia); 37°C, 30 min; read-out: Acceptor substrates / Gal-MU / KM.

The subject of assay [3] is T2, T. congolense TS1b. Nature of the assay: HPAEC-PAD quantification of […]'-sialyllactose, Michaelis-Menten fit. The conditions noted are these: acceptor substrate; donor fetuin (600 μM bound Sia); pH 7.4-7.5, 37°C, 30 min; read-out: Acceptor substrates / Lactose / KM.
Assay [4] relates to T1, T. congolense TS1 e-1. Described as above. The conditions noted are these: acceptor substrate; donor fetuin (600 μM bound Sia); pH 7.4-7.5, 37°C, 30 min; read-out: Acceptor substrates / Lactose / KM.

With `Cc1cc(=O)oc2cc(O[C@@H]3O[C@H](CO)[C@H](O)[C@H](O)[C@H]3O)ccc12` [Gal-MU, 4-methylumbelliferyl ß-D-galactoside], the Km in the assay with T. congolense TS1 e-1 [1] was determined as 74 ± 17 µM; in the assay on T. congolense TS1b [2], 57 ± 14 µM.
On to `OC[C@H]1O[C@@H](O[C@H]2[C@H](O)[C@@H](O)C(O)O[C@@H]2CO)[C@H](O)[C@@H](O)[C@H]1O` (stereo partly shown) [lactose], for which the Km in the assay on T. congolense TS1b [3] worked out at 1.68 ± 0.101 mM; with T. congolense TS1 e-1 [4], 727 ± 48 µM.
